Results: ChEMBL document CHEMBL2396598, “Anti-neuroinflammatory diarylheptanoids from the rhizomes of Dioscorea nipponica” (Bioorg Med Chem Lett, 2013)

Tested on: not listed separately
Experiment: Cytotoxicity against LPS-treated mouse BV2 cells assessed as cell viability at 20 uM relative to control
Format: cell-based, BV-2
Settings: read-out: Activity

SMILES	viability at 20 µM [%]
COc1cc(/C=C/C=C/C(=O)CCc2ccc(O)cc2)ccc1O	115
COc1cc(CC[C@H]2C[C@H](O)C[C@@H](c3ccc(O)c(OC)c3)O2)ccc1O	116
Oc1ccc(/C=C/[C@H]2C[C@H](O)C[C@@H](c3ccc(O)cc3)O2)cc1	91.4
O=C(/C=C/C=C/c1ccc(O)c(O)c1)CCc1ccc(O)cc1	104
COc1cc(CC[C@@H](O)C[C@H](O)CCc2ccc(O)c(O)c2)ccc1O	99.2
Oc1ccc(CC[C@H]2C[C@H](O)C[C@@H](c3ccc(O)cc3)O2)cc1	95.6
O=C(/C=C/c1ccc(O)cc1)C[C@H](O)CCc1ccc(O)cc1	99.4
CNC(=N)NCCC[C@H](N)C(=O)O [TILARGININE]	103
COc1ccc(/C=C/C=C/C(=O)CCc2ccc(O)cc2)cc1	18.5
Oc1ccc(CC[C@H]2C[C@@H](O)C[C@@H](c3ccc(O)cc3)O2)cc1	96.8
COc1cc(CC[C@H]2C[C@@H](O)C[C@@H](c3ccc(O)c(OC)c3)O2)ccc1O	109
O=C(/C=C/C=C/c1ccc(O)c(O)c1)CCc1ccc(O)c(O)c1	24.6
COc1cc(/C=C/C(=O)/C=C/c2ccc(O)cc2)ccc1O	25.5

Tested on: BV-2
Experiment: Antineuroinflammatory activity in mouse BV2 cells assessed as inhibition of LPS-induced nitric oxide production after 24 hrs by Griess assay
Format: functional, cell-based
Settings: BV-2, 24 h

IC50 [µM]	SMILES
13.4	COc1cc(/C=C/C=C/C(=O)CCc2ccc(O)cc2)ccc1O
45.9	COc1cc(CC[C@H]2C[C@H](O)C[C@@H](c3ccc(O)c(OC)c3)O2)ccc1O
18.6	Oc1ccc(/C=C/[C@H]2C[C@H](O)C[C@@H](c3ccc(O)cc3)O2)cc1
14.4	O=C(/C=C/C=C/c1ccc(O)c(O)c1)CCc1ccc(O)cc1
89.7	COc1cc(CC[C@@H](O)C[C@H](O)CCc2ccc(O)c(O)c2)ccc1O
38.1	Oc1ccc(CC[C@H]2C[C@H](O)C[C@@H](c3ccc(O)cc3)O2)cc1
57.1	O=C(/C=C/c1ccc(O)cc1)C[C@H](O)CCc1ccc(O)cc1
8.44	COc1ccc(/C=C/C=C/C(=O)CCc2ccc(O)cc2)cc1
39.7	Oc1ccc(CC[C@H]2C[C@@H](O)C[C@@H](c3ccc(O)cc3)O2)cc1
95.1	COc1cc(CC[C@H]2C[C@@H](O)C[C@@H](c3ccc(O)c(OC)c3)O2)ccc1O
7.84	O=C(/C=C/C=C/c1ccc(O)c(O)c1)CCc1ccc(O)c(O)c1
5.99	COc1cc(/C=C/C(=O)/C=C/c2ccc(O)cc2)ccc1O
